Measured values taken from PubChem BioAssay AID1963985 (Molecular Pharmacology Branch, DTP, NCI, 2024).

Test system: 252836-082-R-J2-PDC tumor spheroids, viability
Test: Anticancer human tumor 252836-082-R-J2-PDC patient-derived head and neck squamous cell carcinoma cell line growth inhibition [PI3K]
Conditions: spheroids with HUVEC and MSC; for IC50: curve of first compound; for viability, T/C: stronger effect = lower value
Outline: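 Spheroid viability read-out. Co-cultures contained the tumor line plus HUVEC and human MSCs. Each agent was paired with a PI3K inhibitor (inavolisib, alpelisib, duvelisib, copanlisib) across half-log dilutions starting at clinical Cmax, or at 10 microM when Cmax was unknown.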

[1] = second compound 0.0316 µM, first compound 0.0316 µM
[2] = second compound 0.0316 µM, first compound 0.1 µM
[3] = second compound 0.0316 µM, first compound 0.316 µM
[4] = second compound 0.0316 µM, first compound 1 µM
[5] = second compound 0.0316 µM, first compound 3.16 µM
[6] = second compound 0.0316 µM, first compound 10 µM
[7] = second compound 0.1 µM, first compound 0.0316 µM
[8] = second compound 0.1 µM, first compound 0.1 µM
[9] = second compound 0.1 µM, first compound 0.316 µM
[10] = second compound 0.1 µM, first compound 1 µM
[11] = second compound 0.1 µM, first compound 3.16 µM
[12] = second compound 0.1 µM, first compound 10 µM
[13] = second compound 0.316 µM, first compound 0.0316 µM
[14] = second compound 0.316 µM, first compound 0.1 µM
[15] = second compound 0.316 µM, first compound 0.316 µM
[16] = second compound 0.316 µM, first compound 1 µM
[17] = second compound 0.316 µM, first compound 3.16 µM
[18] = second compound 0.316 µM, first compound 10 µM
[19] = second compound 1 µM, first compound 0.0316 µM
[20] = second compound 1 µM, first compound 0.1 µM
[21] = second compound 1 µM, first compound 0.316 µM
[22] = second compound 1 µM, first compound 1 µM
[23] = second compound 1 µM, first compound 3.16 µM
[24] = second compound 1 µM, first compound 10 µM
[25] = second compound 3.16 µM, first compound 0.0316 µM
[26] = second compound 3.16 µM, first compound 0.1 µM
[27] = second compound 3.16 µM, first compound 0.316 µM
[28] = second compound 3.16 µM, first compound 1 µM
[29] = second compound 3.16 µM, first compound 3.16 µM
[30] = second compound 3.16 µM, first compound 10 µM
[31] = second compound 10 µM, first compound 0.0316 µM
[32] = second compound 10 µM, first compound 0.1 µM
[33] = second compound 10 µM, first compound 0.316 µM
[34] = second compound 10 µM, first compound 1 µM
[35] = second compound 10 µM, first compound 3.16 µM
[36] = second compound 10 µM, first compound 10 µM
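Note: spheroids exposed to agents for seven days before readout.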
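Throughout, for viability, T/C: percent of vehicle DMSO control viability so 100% = untreated growth.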

SMILES: CC(Cn1ccc(-c2ccc(C#N)c(Cl)c2)n1)NC(=O)c1cc(C(C)O)[nH]n1 (stereo unspecified) + Cc1nc(NC(=O)N2CCCC2C(N)=O)sc1-c1ccnc(C(C)(C)C(F)(F)F)c1
- IC50 (second compound 0.0316 µM): > 10 µM
- IC50 (second compound 0.1 µM): > 10 µM
- IC50 (second compound 0.316 µM): > 10 µM
- IC50 (second compound 1 µM): > 10 µM
- IC50 (second compound 3.16 µM): < 0.0316 µM
- IC50 (second compound 10 µM): < 0.0316 µM
- viability, T/C [1]: 76.5%
- viability, T/C [2]: 75.4%
- viability, T/C [3]: 96%
- viability, T/C [4]: 85.9%
- viability, T/C [5]: 94.3%
- viability, T/C [6]: 71.5%
- viability, T/C [7]: 99.7%
- viability, T/C [8]: 85.1%
- viability, T/C [9]: 80.8%
- viability, T/C [10]: 85%
- viability, T/C [11]: 86.2%
- viability, T/C [12]: 81.5%
- viability, T/C [13]: 65.4%
- viability, T/C [14]: 70.9%
- viability, T/C [15]: 72.6%
- viability, T/C [16]: 74.5%
- viability, T/C [17]: 100%
- viability, T/C [18]: 64.7%
- viability, T/C [19]: 53.4%
- viability, T/C [20]: 58.3%
- viability, T/C [21]: 55.5%
- viability, T/C [22]: 60.8%
- viability, T/C [23]: 54.7%
- viability, T/C [24]: 53%
- viability, T/C [25]: 46.5%
- viability, T/C [26]: 48.2%
- viability, T/C [27]: 44.5%
- viability, T/C [28]: 55.3%
- viability, T/C [29]: 40.8%
- viability, T/C [30]: 42.9%
- viability, T/C [31]: 34%
- viability, T/C [32]: 37.3%
- viability, T/C [33]: 39.2%
- viability, T/C [34]: 37.3%
- viability, T/C [35]: 34.2%
- viability, T/C [36]: 31.1%

SMILES: Cn1nccc1Nc1nccc(-c2ccn(C(CO)c3ccc(Cl)c(F)c3)c(=O)c2)n1 (stereo unspecified) + COc1c(OCCCN2CCOCC2)ccc2c3n(c(=NC(=O)c4cnc(N)nc4)nc12)CCN3
- IC50 (second compound 0.00316 µM): > 10 µM
- IC50 (second compound 0.01 µM): > 10 µM
- IC50 (second compound 0.0316 µM): 4.37 µM
- IC50 (second compound 0.1 µM): < 0.0316 µM
- IC50 (second compound 0.316 µM): < 0.0316 µM
- IC50 (second compound 1 µM): < 0.0316 µM
- viability, T/C (second compound 0.00316 µM, first compound 0.0316 µM): 99.2%
- viability, T/C (second compound 0.00316 µM, first compound 0.1 µM): 86.3%
- viability, T/C (second compound 0.00316 µM, first compound 0.316 µM): 98%
- viability, T/C (second compound 0.00316 µM, first compound 1 µM): 90%
- viability, T/C (second compound 0.00316 µM, first compound 3.16 µM): 78.3%
- viability, T/C (second compound 0.00316 µM, first compound 10 µM): 70.3%
- viability, T/C (second compound 0.01 µM, first compound 0.0316 µM): 77.4%
- viability, T/C (second compound 0.01 µM, first compound 0.1 µM): 78.3%
- viability, T/C (second compound 0.01 µM, first compound 0.316 µM): 81.7%
- viability, T/C (second compound 0.01 µM, first compound 1 µM): 79.1%
- viability, T/C (second compound 0.01 µM, first compound 3.16 µM): 75.8%
- viability, T/C (second compound 0.01 µM, first compound 10 µM): 50.2%
- viability, T/C [1]: 53%
- viability, T/C [2]: 65.4%
- viability, T/C [3]: 56.3%
- viability, T/C [4]: 56.8%
- viability, T/C [5]: 57.8%
- viability, T/C [6]: 31.1%
- viability, T/C [7]: 40.4%
- viability, T/C [8]: 33.8%
- viability, T/C [9]: 38.5%
- viability, T/C [10]: 34.8%
- viability, T/C [11]: 31.9%
- viability, T/C [12]: 19.5%
- viability, T/C [13]: 15.8%
- viability, T/C [14]: 14.1%
- viability, T/C [15]: 15.3%
- viability, T/C [16]: 10.4%
- viability, T/C [17]: 7.12%
- viability, T/C [18]: 4.49%
- viability, T/C [19]: 4.18%
- viability, T/C [20]: 4.13%
- viability, T/C [21]: 3.93%
- viability, T/C [22]: 1.52%
- viability, T/C [23]: 1.98%
- viability, T/C [24]: 0.32%

SMILES: C[C@@H](NC(=O)c1ncnc(N)c1Cl)c1ncc(C(=O)Nc2cc(C(F)(F)F)c(Cl)cn2)s1 + CC(Nc1ncnc2nc[nH]c12)c1cc2cccc(Cl)c2c(=O)n1-c1ccccc1
- IC50 (second compound 0.0316 µM): > 10 µM
- IC50 (second compound 0.1 µM): > 10 µM
- IC50 (second compound 0.316 µM): > 10 µM
- IC50 (second compound 1 µM): > 10 µM
- IC50 (second compound 3.16 µM): > 10 µM
- IC50 (second compound 10 µM): > 10 µM
- viability, T/C [1]: 109%
- viability, T/C [2]: 97.1%
- viability, T/C [3]: 100%
- viability, T/C [4]: 105%
- viability, T/C [5]: 103%
- viability, T/C [6]: 74%
- viability, T/C [7]: 96.3%
- viability, T/C [8]: 94.7%
- viability, T/C [9]: 86.7%
- viability, T/C [10]: 92.1%
- viability, T/C [11]: 94.5%
- viability, T/C [12]: 82.3%
- viability, T/C [13]: 90.1%
- viability, T/C [14]: 89.7%
- viability, T/C [15]: 98.5%
- viability, T/C [16]: 99.4%
- viability, T/C [17]: 94.3%
- viability, T/C [18]: 86.5%
- viability, T/C [19]: 96.8%
- viability, T/C [20]: 89.9%
- viability, T/C [21]: 90.7%
- viability, T/C [22]: 92.7%
- viability, T/C [23]: 97.8%
- viability, T/C [24]: 88.6%
- viability, T/C [25]: 73.5%
- viability, T/C [26]: 84.5%
- viability, T/C [27]: 89.5%
- viability, T/C [28]: 93.1%
- viability, T/C [29]: 72.7%
- viability, T/C [30]: 70.1%
- viability, T/C [31]: 70.8%
- viability, T/C [32]: 69%
- viability, T/C [33]: 55.5%
- viability, T/C [34]: 64.5%
- viability, T/C [35]: 72.1%
- viability, T/C [36]: 65.4%
